Literature values in publication PMC6940698.

Assay: not told

Question: Which results are given for O=C(O)c1cc(S(=O)(=O)O)ccc1O?
Answer: log partition benzene / water: 0.34 ratio; log partition toluene / water: 0.26 ratio; log partition xylene / water: 0.23 ratio
